Test results: ChEMBL document CHEMBL5291721, “A preclinical secondary pharmacology resource illuminates target-adverse drug reaction associations of marketed drugs” (Nat Commun, 2023)

How the values were obtained:
[1] = target: Melanocortin receptor 3 (Homo sapiens, UniProt P41968)
[2] = target: Voltage-gated inwardly rectifying potassium channel KCNH2 (Homo sapiens, UniProt Q12809); format: functional
[3] = target: T1, Type-1 angiotensin II receptor (Homo sapiens, UniProt P30556)
T1 sequence (P30556 whole entry): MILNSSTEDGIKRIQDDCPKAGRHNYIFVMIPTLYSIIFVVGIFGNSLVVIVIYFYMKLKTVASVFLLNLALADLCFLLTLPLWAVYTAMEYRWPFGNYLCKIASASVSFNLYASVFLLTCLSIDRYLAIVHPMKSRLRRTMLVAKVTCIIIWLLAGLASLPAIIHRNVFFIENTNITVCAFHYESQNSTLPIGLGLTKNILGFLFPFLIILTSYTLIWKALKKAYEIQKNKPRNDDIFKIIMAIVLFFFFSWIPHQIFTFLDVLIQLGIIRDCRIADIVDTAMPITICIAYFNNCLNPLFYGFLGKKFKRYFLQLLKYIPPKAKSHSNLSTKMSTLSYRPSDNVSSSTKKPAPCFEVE

[4] = target: T2, Adenosine receptor A1 (Homo sapiens, UniProt P30542)
T2 sequence (P30542 whole entry): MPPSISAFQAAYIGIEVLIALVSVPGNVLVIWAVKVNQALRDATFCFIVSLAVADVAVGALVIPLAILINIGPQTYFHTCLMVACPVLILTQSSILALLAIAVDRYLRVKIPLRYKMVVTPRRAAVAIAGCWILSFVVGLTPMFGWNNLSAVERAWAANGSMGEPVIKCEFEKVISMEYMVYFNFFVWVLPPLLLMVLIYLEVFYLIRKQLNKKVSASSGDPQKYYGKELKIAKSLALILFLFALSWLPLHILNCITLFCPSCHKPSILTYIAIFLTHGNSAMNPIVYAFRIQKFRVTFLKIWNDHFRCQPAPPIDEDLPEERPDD

[5] = target: T3, Alpha-2C adrenergic receptor (Homo sapiens, UniProt P18825); format: functional
T3 sequence (P18825 whole entry): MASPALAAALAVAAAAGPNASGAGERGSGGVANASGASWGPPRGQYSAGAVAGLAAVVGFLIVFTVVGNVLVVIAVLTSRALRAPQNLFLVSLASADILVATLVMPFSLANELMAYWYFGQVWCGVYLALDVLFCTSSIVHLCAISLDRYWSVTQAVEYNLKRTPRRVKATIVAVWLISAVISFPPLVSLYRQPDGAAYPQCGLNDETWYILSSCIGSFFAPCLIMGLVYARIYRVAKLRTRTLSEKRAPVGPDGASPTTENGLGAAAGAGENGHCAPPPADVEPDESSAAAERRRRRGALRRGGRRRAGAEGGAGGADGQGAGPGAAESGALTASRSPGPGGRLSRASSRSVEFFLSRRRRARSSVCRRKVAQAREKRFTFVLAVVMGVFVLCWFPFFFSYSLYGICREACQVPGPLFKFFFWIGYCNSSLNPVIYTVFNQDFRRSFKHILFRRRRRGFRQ

[6] = target: T4, Equilibrative nucleoside transporter 1 (Homo sapiens, UniProt Q99808)
T4 sequence (Q99808 whole entry): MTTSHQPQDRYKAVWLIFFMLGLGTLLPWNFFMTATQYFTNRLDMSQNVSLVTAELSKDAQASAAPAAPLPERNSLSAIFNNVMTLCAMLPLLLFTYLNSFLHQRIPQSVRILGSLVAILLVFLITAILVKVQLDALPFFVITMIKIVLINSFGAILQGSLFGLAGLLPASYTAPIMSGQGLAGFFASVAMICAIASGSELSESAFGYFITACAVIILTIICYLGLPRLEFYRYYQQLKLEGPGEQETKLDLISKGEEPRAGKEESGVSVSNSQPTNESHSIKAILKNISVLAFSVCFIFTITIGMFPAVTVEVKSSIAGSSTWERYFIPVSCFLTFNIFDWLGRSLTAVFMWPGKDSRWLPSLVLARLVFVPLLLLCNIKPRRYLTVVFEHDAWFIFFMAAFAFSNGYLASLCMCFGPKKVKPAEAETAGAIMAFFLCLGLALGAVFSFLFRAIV

[7] = target: Glutamate receptor ionotropic, NMDA 1 (Rattus norvegicus, UniProt P35439)
[8] = target: Sodium-dependent noradrenaline transporter (Homo sapiens, UniProt P23975)
Sodium-dependent noradrenaline transporter, sequence (P23975 whole entry): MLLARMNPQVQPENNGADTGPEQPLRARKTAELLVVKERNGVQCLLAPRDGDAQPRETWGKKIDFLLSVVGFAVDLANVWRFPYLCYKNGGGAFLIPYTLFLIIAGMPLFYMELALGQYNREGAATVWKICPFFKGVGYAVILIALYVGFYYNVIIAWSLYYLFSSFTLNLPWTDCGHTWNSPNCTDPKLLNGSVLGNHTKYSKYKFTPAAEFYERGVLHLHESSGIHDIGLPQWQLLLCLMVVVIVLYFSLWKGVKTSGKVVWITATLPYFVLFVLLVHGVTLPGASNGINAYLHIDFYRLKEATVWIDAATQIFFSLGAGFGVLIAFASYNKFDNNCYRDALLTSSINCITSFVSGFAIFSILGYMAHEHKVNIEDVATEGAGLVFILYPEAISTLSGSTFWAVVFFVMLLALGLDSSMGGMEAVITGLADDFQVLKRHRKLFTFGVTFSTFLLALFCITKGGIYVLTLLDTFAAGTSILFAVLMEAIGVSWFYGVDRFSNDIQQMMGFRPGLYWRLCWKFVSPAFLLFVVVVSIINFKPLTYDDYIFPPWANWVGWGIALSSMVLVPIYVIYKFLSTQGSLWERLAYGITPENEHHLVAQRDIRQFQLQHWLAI

[9] = target: T5, Muscarinic acetylcholine receptor M2 (Homo sapiens, UniProt P08172); format: functional, cell-based
T5 sequence (P08172 whole entry): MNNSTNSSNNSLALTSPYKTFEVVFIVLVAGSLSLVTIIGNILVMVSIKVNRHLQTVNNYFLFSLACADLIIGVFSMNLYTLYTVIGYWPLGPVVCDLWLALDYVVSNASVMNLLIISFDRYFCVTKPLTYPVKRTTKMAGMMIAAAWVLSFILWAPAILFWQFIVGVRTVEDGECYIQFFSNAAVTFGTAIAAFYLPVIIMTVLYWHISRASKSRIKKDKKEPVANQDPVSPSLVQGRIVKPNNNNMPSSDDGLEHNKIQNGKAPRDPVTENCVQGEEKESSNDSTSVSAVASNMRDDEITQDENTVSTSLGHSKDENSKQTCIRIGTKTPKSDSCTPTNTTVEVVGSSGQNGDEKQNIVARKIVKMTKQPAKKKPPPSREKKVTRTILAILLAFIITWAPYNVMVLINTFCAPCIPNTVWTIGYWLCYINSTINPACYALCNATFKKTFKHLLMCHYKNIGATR

[10] = target: T6, Adenosine receptor A3 (Homo sapiens, UniProt P0DMS8)
T6 sequence (P0DMS8 whole entry): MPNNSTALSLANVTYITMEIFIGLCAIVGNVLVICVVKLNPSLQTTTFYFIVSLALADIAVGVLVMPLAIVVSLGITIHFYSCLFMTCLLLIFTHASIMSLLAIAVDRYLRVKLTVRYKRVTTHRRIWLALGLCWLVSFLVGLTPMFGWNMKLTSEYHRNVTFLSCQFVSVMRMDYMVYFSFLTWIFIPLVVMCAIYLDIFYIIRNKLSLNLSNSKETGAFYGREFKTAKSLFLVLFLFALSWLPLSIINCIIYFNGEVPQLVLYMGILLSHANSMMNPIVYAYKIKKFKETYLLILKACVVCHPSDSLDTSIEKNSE
Further: assay procedure not described here.

Melanocortin receptor 3, sequence (P41968 whole entry): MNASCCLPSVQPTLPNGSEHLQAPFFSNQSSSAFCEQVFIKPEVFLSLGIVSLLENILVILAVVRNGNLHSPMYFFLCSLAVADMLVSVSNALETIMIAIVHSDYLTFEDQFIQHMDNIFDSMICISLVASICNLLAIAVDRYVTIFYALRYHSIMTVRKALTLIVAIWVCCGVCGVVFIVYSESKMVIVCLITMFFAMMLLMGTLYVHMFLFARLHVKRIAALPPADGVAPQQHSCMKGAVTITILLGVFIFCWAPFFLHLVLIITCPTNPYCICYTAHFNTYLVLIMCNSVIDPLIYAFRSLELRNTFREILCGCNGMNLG
Voltage-gated inwardly rectifying potassium channel KCNH2, sequence (Q12809 whole entry): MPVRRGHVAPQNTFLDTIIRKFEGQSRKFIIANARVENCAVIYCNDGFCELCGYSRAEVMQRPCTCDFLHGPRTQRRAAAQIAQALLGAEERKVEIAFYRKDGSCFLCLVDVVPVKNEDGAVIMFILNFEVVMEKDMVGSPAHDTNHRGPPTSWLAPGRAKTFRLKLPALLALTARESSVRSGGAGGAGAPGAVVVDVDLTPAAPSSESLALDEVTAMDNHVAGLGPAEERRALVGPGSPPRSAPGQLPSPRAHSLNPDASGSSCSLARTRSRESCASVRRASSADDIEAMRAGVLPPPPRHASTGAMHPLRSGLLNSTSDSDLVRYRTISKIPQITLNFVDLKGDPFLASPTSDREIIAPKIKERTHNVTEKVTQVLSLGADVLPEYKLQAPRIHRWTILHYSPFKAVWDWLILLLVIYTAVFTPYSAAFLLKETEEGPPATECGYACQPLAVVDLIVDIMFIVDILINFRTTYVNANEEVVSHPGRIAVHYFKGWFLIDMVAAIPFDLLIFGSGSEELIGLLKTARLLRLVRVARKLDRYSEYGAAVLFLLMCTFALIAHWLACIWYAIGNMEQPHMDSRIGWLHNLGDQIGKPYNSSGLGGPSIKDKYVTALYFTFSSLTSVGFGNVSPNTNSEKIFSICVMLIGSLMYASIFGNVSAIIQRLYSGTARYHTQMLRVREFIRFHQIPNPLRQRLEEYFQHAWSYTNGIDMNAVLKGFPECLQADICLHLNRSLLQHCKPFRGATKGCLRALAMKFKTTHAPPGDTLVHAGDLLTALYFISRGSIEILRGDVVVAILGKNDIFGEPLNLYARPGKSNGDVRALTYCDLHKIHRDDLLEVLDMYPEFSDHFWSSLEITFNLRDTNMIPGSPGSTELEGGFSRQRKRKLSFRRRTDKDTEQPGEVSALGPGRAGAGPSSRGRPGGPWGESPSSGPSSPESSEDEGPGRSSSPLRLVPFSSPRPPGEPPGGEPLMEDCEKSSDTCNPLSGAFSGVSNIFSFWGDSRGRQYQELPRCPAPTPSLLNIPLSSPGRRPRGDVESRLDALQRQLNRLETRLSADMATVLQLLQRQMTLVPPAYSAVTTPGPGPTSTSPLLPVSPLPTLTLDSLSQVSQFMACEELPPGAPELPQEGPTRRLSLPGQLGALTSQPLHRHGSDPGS

Structure (SMILES) | AC50 [1] [µM] | AC50 [2] [µM] | AC50 [3] [µM] | AC50 [4] [µM] | AC50 [5] [µM] | AC50 [6] [µM] | other results
CCCCC1C(=O)N(c2ccccc2)N(c2ccccc2)C1=O [PHENYLBUTAZONE] | > 30 | > 30 | > 30 | > 30 | > 10 | > 30 | AC50 [7]: > 10 µM; AC50 [8]: > 30 µM; AC50 [9]: > 10 µM; AC50 [10]: > 30 µM
[H]/N=C(/N)N/C(=N/[H])NCCc1ccccc1 [PHENFORMIN] | > 30 | > 30 | > 30 | > 30 | > 30 | > 30 | AC50 [7]: 2.32 µM; AC50 [8]: 18.3 µM; AC50 [9]: > 10 µM; AC50 [10]: > 30 µM
COC(=O)c1ccc(O)cc1 [METHYLPARABEN] |  | > 30 |  |  |  |  | 
CC[C@@H]([C@H](C)O)n1ncn(-c2ccc(N3CCN(c4ccc(OC[C@@H]5CO[C@@](Cn6cncn6)(c6ccc(F)cc6F)C5)cc4)CC3)cc2)c1=O [POSACONAZOLE] | > 30 | > 30 |  |  | > 30 |  | AC50 [8]: > 30 µM; AC50 [10]: > 30 µM
CCOC(=O)N1CSC[C@H]1C(=O)O [TELMESTEINE] |  | > 30 |  |  |  |  | 
CC1OC2(CS1)CN1CCC2CC1 (stereo not drawn) [CEVIMELINE] | > 10 | > 30 | > 10 | > 10 | > 30 | > 10 | AC50 [7]: > 10 µM; AC50 [8]: > 10 µM; AC50 [9]: 3.03 µM; AC50 [10]: > 10 µM
Cc1ncc(COP(=O)(O)O)c(C=O)c1O [PYRIDOXAL PHOSPHATE ANHYDROUS] |  | > 30 |  |  |  |  | 
Cc1c(N(C)CS(=O)(=O)O)c(=O)n(-c2ccccc2)n1C [METAMIZOLE] |  | > 30 |  |  |  |  | 
CCC(=O)O[C@]1(C(=O)CCl)[C@@H](C)C[C@H]2[C@@H]3C[C@H](F)C4=CC(=O)C=C[C@]4(C)[C@@]3(F)[C@@H](O)C[C@@]21C [HALOBETASOL PROPIONATE] |  | > 30 |  |  |  |  | 
CC(C)N(CCNC(=O)CN1CCCC1=O)C(C)C |  | > 30 |  |  |  |  | 
Cc1ccccc1N1CCN(CCc2nnc3n2CCCC3)CC1 [DAPIPRAZOLE] |  | > 30 |  |  |  |  | 
CC(C)(C)NC[C@H](O)COc1cccc2c1CCCC2=O [LEVOBUNOLOL] |  | > 30 |  |  |  |  | 
CC(N)Cc1ccc(O)cc1 (stereo not drawn) [HYDROXYAMPHETAMINE] |  | > 30 |  |  |  |  | 
NCC(CC(=O)O)c1ccccc1 (stereo not drawn) [PHENIBUT] |  | > 30 |  |  |  |  | 
O=C(O)c1cn(C2CC2)c2cc(N3CCNCC3)c(F)cc2c1=O [CIPROFLOXACIN] | > 30 |  | > 30 | > 30 |  | > 30 | AC50 [10]: > 30 µM
CCCc1nc(C(C)(C)O)c(C(=O)O)n1Cc1ccc(-c2ccccc2-c2nnn[nH]2)cc1 [OLMESARTAN] |  | > 30 | 0.0004 |  |  |  | 
CC(=O)O[C@]1(C(C)=O)CC[C@H]2[C@@H]3C=C(Cl)C4=CC(=O)CC[C@]4(C)[C@H]3CC[C@@]21C [CHLORMADINONE ACETATE] |  | > 30 |  |  |  |  | 

Structure (SMILES) | AC50 [1] [µM] | AC50 [2] [µM] | AC50 [3] [µM] | AC50 [4] [µM] | AC50 [5] [µM] | AC50 [6] [µM] | other results
COc1ccc(CN(CCN(C)C)c2ccccn2)cc1 [PYRILAMINE] |  | 9.59 |  |  |  |  | 
Cc1cc(N)c2ccccc2[n+]1CCCCCCCCCC[n+]1c(C)cc(N)c2ccccc21 |  | 0.133 |  |  |  |  | 
C=CCSCC1Nc2cc(Cl)c(S(N)(=O)=O)cc2S(=O)(=O)N1 (stereo not drawn) [ALTHIAZIDE] |  | > 30 |  |  |  |  | 
COc1cc2c(cc1OC)CC(=O)N(CCCN(C)C[C@H]1Cc3cc(OC)c(OC)cc31)CC2 [IVABRADINE] |  | 30 |  |  |  |  | 
CNCc1ccc(-c2[nH]c3cc(F)cc4c3c2CCNC4=O)cc1 [RUCAPARIB] | > 30 | 14.1 | > 30 | > 30 | > 10 | > 30 | AC50 [8]: 20.7 µM; AC50 [9]: > 10 µM
CNC1=Nc2ccc(Cl)cc2C(c2ccccc2)=[N+]([O-])C1 [CHLORDIAZEPOXIDE] | > 30 | > 30 | > 30 | > 30 | > 10 | > 30 | AC50 [7]: > 10 µM; AC50 [8]: > 30 µM; AC50 [9]: > 10 µM
C[C@H](Cc1cc2c(c(C(N)=O)c1)N(CCCO)CC2)NCCOc1ccccc1OCC(F)(F)F [SILODOSIN] |  | 12.8 |  |  |  |  | 
Clc1ccc(C(Cn2ccnc2)OCc2ccsc2Cl)c(Cl)c1 (stereo not drawn) [TIOCONAZOLE] | > 30 |  | > 30 | > 30 | 6.5 | > 30 | AC50 [7]: > 30 µM; AC50 [8]: 20.7 µM; AC50 [9]: > 30 µM; AC50 [10]: 6.43 µM
Cc1cc(NC(=O)C2=C(O)c3ccccc3S(=O)(=O)N2C)no1 [ISOXICAM] |  | > 30 |  |  |  |  | 
c1ccc2c(c1)CCc1ccccc1N2C1CN2CCC1CC2 (stereo not drawn) [QUINUPRAMINE] |  | 12 |  |  |  |  | 
CN1C(=O)/C(=N\NC(N)=S)c2ccccc21 [METHISAZONE] |  | > 30 |  |  |  |  | 
CC(C)COCC(CN(Cc1ccccc1)c1ccccc1)N1CCCC1 (stereo not drawn) [BEPRIDIL] | 12.5 |  | > 30 | > 30 | 3.3 | > 30 | AC50 [7]: > 30 µM; AC50 [8]: 21 µM; AC50 [9]: > 30 µM
NC(=O)OCC(O)COc1ccc(Cl)cc1 (stereo not drawn) [CHLORPHENESIN CARBAMATE] |  | > 30 |  |  |  |  | 
Cc1cnc(C(=O)NCCc2ccc(S(=O)(=O)NC(=O)NC3CCCCC3)cc2)cn1 [GLIPIZIDE] | > 30 |  | > 30 | > 30 | > 10 | > 30 | AC50 [7]: > 10 µM; AC50 [10]: > 30 µM
CCOC(=O)[C@H](CCc1ccccc1)N[C@@H](C)C(=O)N(CC(=O)O)C1Cc2ccccc2C1 |  | > 30 |  |  |  |  | 
CCC[C@H](NC(=O)[C@@H]1[C@H]2CCC[C@H]2CN1C(=O)[C@@H](NC(=O)[C@@H](NC(=O)c1cnccn1)C1CCCCC1)C(C)(C)C)C(=O)C(=O)NC1CC1 | > 30 | > 30 | > 30 | > 30 | > 10 | > 30 | AC50 [7]: > 10 µM; AC50 [8]: > 10 µM; AC50 [10]: > 30 µM
